From publication PMC6930522, “Structure-Based Pharmacophore Modeling, Virtual Screening, Molecular Docking and Biological Evaluation for Identification of Potential Poly (ADP-Ribose) Polymerase-1 (PARP-1) Inhibitors” (Molecules, 2019)
Read-outs that look alike come from different tables or passages of the source.

Experiments:
PARP-1 = molecular target: T1, PARP-1 (Homo sapiens, UniProt P09874); test: In vitro PARP inhibition assay (PARP-1); type: biochemical; conditions: Table 3; PARP-1 enzyme assay, mean ± SD, three independent experiments
T1 construct: purchased Trevigan (Gaithersburg, MD, USA)
T1 sequence (P09874 whole entry): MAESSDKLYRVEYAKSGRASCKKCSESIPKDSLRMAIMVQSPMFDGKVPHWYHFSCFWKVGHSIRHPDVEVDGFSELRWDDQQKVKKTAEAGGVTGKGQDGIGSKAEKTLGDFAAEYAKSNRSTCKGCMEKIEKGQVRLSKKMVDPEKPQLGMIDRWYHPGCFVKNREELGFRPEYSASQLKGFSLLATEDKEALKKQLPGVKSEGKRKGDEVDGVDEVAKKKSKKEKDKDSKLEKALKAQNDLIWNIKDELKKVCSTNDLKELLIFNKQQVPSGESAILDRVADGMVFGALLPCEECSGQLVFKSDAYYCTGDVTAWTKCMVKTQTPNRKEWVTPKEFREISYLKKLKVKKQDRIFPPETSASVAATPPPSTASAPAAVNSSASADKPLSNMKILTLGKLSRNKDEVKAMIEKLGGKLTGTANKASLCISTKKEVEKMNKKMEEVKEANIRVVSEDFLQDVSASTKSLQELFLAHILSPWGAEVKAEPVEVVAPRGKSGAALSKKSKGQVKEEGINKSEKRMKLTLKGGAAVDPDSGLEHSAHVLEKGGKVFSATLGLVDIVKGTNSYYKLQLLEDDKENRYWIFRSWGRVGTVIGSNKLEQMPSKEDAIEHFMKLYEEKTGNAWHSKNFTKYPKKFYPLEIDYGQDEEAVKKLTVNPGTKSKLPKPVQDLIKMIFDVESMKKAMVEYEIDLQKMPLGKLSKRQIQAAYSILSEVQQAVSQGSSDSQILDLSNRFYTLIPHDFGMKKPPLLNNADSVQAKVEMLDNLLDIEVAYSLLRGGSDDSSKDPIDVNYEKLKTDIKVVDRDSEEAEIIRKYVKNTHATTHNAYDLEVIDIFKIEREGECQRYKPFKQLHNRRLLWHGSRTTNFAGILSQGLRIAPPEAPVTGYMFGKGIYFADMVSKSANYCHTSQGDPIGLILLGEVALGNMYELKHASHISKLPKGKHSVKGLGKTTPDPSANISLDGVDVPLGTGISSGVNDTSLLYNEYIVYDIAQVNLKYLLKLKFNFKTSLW
Description: (§1) Purified recombinant human PARPs from Trevigan (Gaithersburg, MD, USA) was used to determine the IC50 values of a PARP inhibitor. The PARP enzyme assay was set up on ice in a volume of 100 μL consisting of 50 mM Tris–HCl (pH 8.0), 2 mM MgCl2, 30 μg/mL of DNase activated herring sperm DNA (Sigma, MO, USA), 30 μM [^3H]nicotinamide adenine dinucleotide (67 mCi/mmol), 75 μg/mL PARP enzyme and various concentrations of the compounds to be tested. The reaction was initiated by incubating the mixture at 25 °C. After 15 min of incubation, the reaction was terminated by adding 500 μL of ice cold 20% (w/v) trichloroacetic acid. The formed precipitate was transferred onto a glass fiber filter (Packard Unifilter–GF/B) and washed three times with ethanol. After the filter is dried, the radioactivity is determined by scintillation counting.

[1] = tested on: human lung cancer A549 cells; test: MTT assay, proliferation of A549 cells; type: cell-based; conditions: 48 h, different concentrations, Figure 5
Description: A549 cells were seeded in a 96-well culture plate and allowed to grow overnight. Then, cells were exposed to different concentrations of compounds 1–4 and incubated at 37 °C for 48 h. After that, an MTT stock solution (0.5 mg/mL) was added into each well and the plate was incubated for 4 h. The 150 µL of DMSO was used for fixing the MTT-treated cells and the absorbance of each sample was recorded at 490 nm with a Microplate Spectrophotometer.

PARP-2 = molecular target: T2, PARP-2 (Homo sapiens, UniProt Q9UGN5); test: In vitro PARP inhibition assay (PARP-2); type: biochemical
T2 construct: purchased Trevigan (Gaithersburg, MD, USA)
T2 sequence (Q9UGN5 whole entry): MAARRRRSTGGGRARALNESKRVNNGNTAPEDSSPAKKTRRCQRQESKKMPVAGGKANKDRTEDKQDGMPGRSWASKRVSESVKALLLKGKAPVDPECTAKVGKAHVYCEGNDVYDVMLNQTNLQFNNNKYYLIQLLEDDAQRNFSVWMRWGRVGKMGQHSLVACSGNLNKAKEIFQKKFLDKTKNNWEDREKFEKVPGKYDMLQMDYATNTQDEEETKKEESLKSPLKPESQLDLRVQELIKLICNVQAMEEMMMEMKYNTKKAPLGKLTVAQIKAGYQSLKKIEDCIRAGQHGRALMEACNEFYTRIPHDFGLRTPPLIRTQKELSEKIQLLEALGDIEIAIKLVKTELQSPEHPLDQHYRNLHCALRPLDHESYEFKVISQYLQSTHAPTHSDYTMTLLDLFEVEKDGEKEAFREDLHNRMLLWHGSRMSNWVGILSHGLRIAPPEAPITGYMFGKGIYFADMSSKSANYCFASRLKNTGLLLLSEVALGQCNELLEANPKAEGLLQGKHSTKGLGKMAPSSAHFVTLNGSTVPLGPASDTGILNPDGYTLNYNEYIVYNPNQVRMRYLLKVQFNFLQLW
Description: as §1

PARP-3 = molecular target: T3, PARP-3 (Homo sapiens, UniProt Q9Y6F1); test: In vitro PARP inhibition assay (PARP-3); type: biochemical; conditions: Table 4
T3 construct: purchased Trevigan (Gaithersburg, MD, USA)
T3 sequence (Q9Y6F1 1-533): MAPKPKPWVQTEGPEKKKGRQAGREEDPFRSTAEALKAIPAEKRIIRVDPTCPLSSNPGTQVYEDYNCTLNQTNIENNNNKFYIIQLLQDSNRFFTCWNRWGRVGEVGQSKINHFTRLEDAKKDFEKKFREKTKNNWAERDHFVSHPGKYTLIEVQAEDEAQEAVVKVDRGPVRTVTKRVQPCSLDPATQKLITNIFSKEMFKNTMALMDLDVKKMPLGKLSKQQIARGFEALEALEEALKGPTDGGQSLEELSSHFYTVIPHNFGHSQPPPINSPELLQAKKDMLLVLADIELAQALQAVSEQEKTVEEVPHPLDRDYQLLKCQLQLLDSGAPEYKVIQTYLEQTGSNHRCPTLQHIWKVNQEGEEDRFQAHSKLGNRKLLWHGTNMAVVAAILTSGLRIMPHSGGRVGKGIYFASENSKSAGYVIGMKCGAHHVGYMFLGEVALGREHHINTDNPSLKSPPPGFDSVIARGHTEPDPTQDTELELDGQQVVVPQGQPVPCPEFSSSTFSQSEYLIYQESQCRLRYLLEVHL
Description: as §1

| Structure (SMILES) | IC50 (PARP-1) [µM] | Inhibition of growth/proliferation of A549 cells [1] | IC50 (PARP-2; Table 4, read-out: PARP-2) [µM] | PARP-2/PARP-1 (PARP-2; selectivity ratio of IC50 values) | IC50 (PARP-3) [µM] | IC50 (PARP-2) [µM] |
| --- | --- | --- | --- | --- | --- | --- |
| Cc1nc2c(O)cccc2c(=O)[nH]1 [NU1025, reference compound] | 0.4 ± 0.035 | – | – | – | – | – |
| CCc1ccc(-c2nc3cccc4c3n2CCNC4=O)cc1 [Compound 4] | 0.065 ± 0.008 | stronger anti-proliferation effects than compounds 2 and 3 | > 35 | >1000 | > 100 | – |
| NC(=O)c1cccc2c1C(=O)N(C1CCN(Cc3ccc(F)cc3)CC1)C2 [Compound 1] | – | stronger anti-proliferation effects than compounds 2 and 3 | – | – | > 100 | > 35 |

Further lines, with some results ahead:

| IC50 (PARP-1) [µM] | Structure (SMILES) | Inhibition of growth/proliferation of A549 cells [1] | IC50 (PARP-2; Table 4, read-out: PARP-2) [µM] | PARP-2/PARP-1 (PARP-2; selectivity ratio of IC50 values) | IC50 (PARP-3) [µM] | IC50 (PARP-2) [µM] |
| --- | --- | --- | --- | --- | --- | --- |
| 0.16 ± 0.013 | CC(=O)Nc1cccc(Cn2c(=O)[nH]c(=O)c3ccccc32)c1 [Compound 3] | – | – | – | – | – |
| 0.19 ± 0.026 | CN(C)CCNc1ccc2[nH]c(=O)c3ccccc3c2n1 [Compound 2] | – | – | – | – | – |
